Laboratory results as given in paper PMC9727182, “Identification of pharmacokinetic markers for safflower injection using a combination of system pharmacology, multicomponent pharmacokinetics, and quantitative proteomics study” (Frontiers in Pharmacology, 2022).
Values joined by “and” are separate entries in the source; they are usually repeats but may differ in a detail not shown here. Identical values can stand only once.

Tests used:
[1] = test system: H9c2 cardiomyocytes injured by H2O2; assay: Protection of cardiomyocytes injured by H2O2 (MTT); type: cell-based; settings: for protection: preliminary test at maximum detected plasma concentration
Method: H9c2 cardiomyocytes obtained from Cell Bank of the Chinese Academy of Sciences (Shanghai, China) were cultured in DMEM (high glucose) supplemented with 1% P/S and 15% FBS in 5% CO2 at 37°C. The cells were collected with 0.25% trypsin, followed by re-seeding in 96-well multiplates with a density of 5×10^3 cells per well. The cell experiments were grouped as follows: normal group, model group (H2O2), administration groups and positive control groups (N-Acetyl-L-cysteine, NAC). […] After that, cells were incubated with 0.5 mg/ml of MTT for 4 h under standard condition, followed by addition of 150 µl DMSO into every well. The cell supernatants were finally removed and the optical density (OD) was recorded at 570 nm using a microplate reader (Thermo Fisher Scientific, United States). The protection rate of the compounds on H9c2 cardiomyocytes was calculated as (OD valueadministration group (or NAC group)-OD valuemodel group)/(OD valuenormal group-OD valuemodel group) ×100%.

[2] = Stability in diluted SI at room temperature; settings: analyzed at 0, 2, 4, 8, 12, 24, and 48 h
[3] = Stability of 6 compounds of SI in rat plasma; settings: for 10h in auto-sampler vials RE: extracted rat plasma; for 6h at room temperature RE / Freeze-thaw stability (three cycles) RE / Long-term stability (-80℃,15 days) RE: rat plasma
Text: The LC-MS method was validated by linearity, limits of detection (LOD), limits of quantification (LOQ), precision, accuracy, extraction recovery, matrix effect and stability of the 6 ingredients in rat plasma. Calibration curves were plotted using weighted linear regression of the peak area ratio of analyte to the IS against the corresponding nominal concentration of the analyte. LOD and LOQ were defined as the detectable concentration at which the ratio of signal to noise was more than 3 and 10, respectively. Intra- and inter-day accuracy and precision were assessed by detecting quality control (QC) samples using five replicates of rat samples at three concentration levels on one or three validation days, respectively. Accuracy and precision were expressed by relative error (RE) and relative standard deviation (RSD), respectively. The extraction recovery and matrix effect of the 6 components at above-mentioned three concentration levels were determined. Stability was assessed under the condition of placing un-treated plasma samples at room temperature for 6 h, and extracted plasma samples in auto-sampler for 10 h, as well as placing plasma samples within freeze-thaw three cycles and at −80 °C for 15 days.

[4] = Multicomponent pharmacokinetics in rat plasma after i.v. safflower injection (SI); settings: for half-life / AUC(0-inf) / AUC(0-t) / Cmax / MRT inf / MRT last / Vd / clearance / concentration at 15 min: male, Sprague-Dawley, rat, plasma; for half-life / AUC(0-inf) / AUC(0-t) / Cmax / MRT inf / MRT last / Vd / clearance: iv; for detected mean maximum plasma concentration: rats, after administration of 4 ml/kg of SI; for concentration at 15 min: intravenous
Method: The animal experiments were approved by the Animal Care and Use Committee of the College of Animal Science (College of Bee Science), Fujian Agriculture and Forestry University (Approval Number: PZCASFAFU21012). 250 ± 20 g of male Sprague-Dawley (SD) rats were provided by Lab Animal Center in Fujian Medical University (Fuzhou, China).
Ten rats were divided into three groups (Low dose group, n = 4; medium and high groups, n = 3, respectively). […] For each rat, 2 ml of physiological saline was supplemented after 30 min sampling via intraperitoneal injection. The plasma samples were obtained by centrifugation at 3,000 rpm for 10 min and stored at −20°C until analysis.
Clear supernatant (5 μl) was injected into HPLC-MS for bioanalysis.
The sample was separated on a RD-C18 column (4.6 mm × 50 mm, 3.5 μm, Zhongpu Develop, China). The mobile phase incudes water with 0.1% acetic acid (A) and acetonitrile (B). […] The column temperature, flow rate and injection volume were set at 30°C, 0.5 ml/min and 5 μl, respectively.
Non-compartmental model was used to calculate the PK parameters by DAS 3.0 software (Chinese Pharmacologic Society, Beijing, China). A single-tailed t-test was carried out in the study.

[5] = 1 h after administration (2 ml/kg of SI), preliminary test
[6] = behind 15 min after i.v. low dose administration (1 ml/kg of SI)

| Structure (SMILES) | Stability RSD [2] | 10h in auto-sampler vials RE ([3]; spiked 40 ng/mL) | 10h in auto-sampler vials RE ([3]; spiked 1000 ng/mL) | 10h in auto-sampler vials RE ([3]; spiked 10000 ng/mL) | 6h at room temperature RE ([3]; spiked 40 ng/mL) | Freeze-thaw stability (three cycles) RE ([3]; spiked 40 ng/mL) | Long-term stability (-80℃,15 days) RE ([3]; spiked 40 ng/mL) | 6h at room temperature RE ([3]; spiked 1000 ng/mL) | Freeze-thaw stability (three cycles) RE ([3]; spiked 1000 ng/mL) | Long-term stability (-80℃,15 days) RE ([3]; spiked 1000 ng/mL) | 6h at room temperature RE ([3]; spiked 10000 ng/mL) | Freeze-thaw stability (three cycles) RE ([3]; spiked 10000 ng/mL) | Long-term stability (-80℃,15 days) RE ([3]; spiked 10000 ng/mL) | detection in rat plasma [4, 5] | detection in rat plasma [4, 6] | AUC(0-inf) ([4]; 4 ml/kg) | AUC(0-t) ([4]; 4 ml/kg) | Cmax ([4]; 4 ml/kg) | MRT inf ([4]; 4 ml/kg) | concentration at 15 min ([4]; 2 ml/kg) | other results |
| --- | --- | --- | --- | --- | --- | --- | --- | --- | --- | --- | --- | --- | --- | --- | --- | --- | --- | --- | --- | --- | --- |
| CC(=O)N[C@@H](CS)C(=O)O [NAC, N-Acetyl-L-cysteine, reference compound] | – | – | – | – | – | – | – | – | – | – | – | – | – | – | – | – | – | – | – | – | protection rate ([1]; 1 mM, positive drug): 6.45% |
| O=C(O)[C@H]1O[C@@H](Oc2cc3oc(-c4ccc(O)cc4)cc(=O)c3c(O)c2O)[C@H](O)[C@@H](O)[C@@H]1O [SCU, scutellarin] | 4.42% | 10.63% | 0.30% | -1.48% | -6.50% | 0.00% | 6.00% | -2.90% | -4.00% | 2.80% | -2.06% | -5.21% | -0.81% | can be detected | can’t be detected | 358 ± 34 ng·h/mL | 306 ± 12.5 ng·h/mL | 327 ± 60 ng/mL | 2.96 ± 1.49 h | – | protection ([1]; 0.7 μM): absence of protection; half-life [4]: ≥ 2.58 h; AUC(0-inf) ([4]; 2 ml/kg): 105 ± 31.5 ng·h/mL; AUC(0-t) ([4]; 2 ml/kg): 89.8 ± 21 ng·h/mL; Cmax ([4]; 2 ml/kg): 162 ± 17.4 ng/mL; MRT inf ([4]; 2 ml/kg): 2.9 ± 2.42 h; MRT last ([4]; 2 ml/kg): 1.46 ± 0.64 h; Vd ([4]; 2 ml/kg): 0.05 ± 0.02 L/kg; clearance ([4]; 2 ml/kg): 0.167 mL/min/kg; half-life ([4]; 2 ml/kg): 2.58 ± 1.84 h; MRT last ([4]; 4 ml/kg): 1.57 ± 0.68 h; Vd ([4]; 4 ml/kg): 0.03 ± 0.01 L/kg; clearance ([4]; 4 ml/kg): 0.167 mL/min/kg; half-life ([4]; 4 ml/kg): 2.84 ± 1.19 h; detected mean maximum plasma concentration [4]: 0.327 μg/mL and 0.7 μM |
| C[C@@H]1O[C@@H](OC[C@H]2O[C@@H](Oc3c(-c4ccc(O)c(O)c4)oc4cc(O)cc(O)c4c3=O)[C@H](O)[C@@H](O)[C@@H]2O)[C@H](O)[C@H](O)[C@H]1O [RU, rutin] | 2.31% | 6.25% | 2.90% | -5.96% | -4.00% | -4.50% | 7.00% | -2.48% | -3.06% | 3.36% | -3.71% | 0.09% | -2.80% | can be detected | can’t be detected | 15.1 ± 2.23 ng·h/mL | 12.4 ± 1.37 ng·h/mL | 39.3 ± 1.53 ng/mL | 0.36 ± 0.06 h | – | protection ([1]; 0.06 μM): absence of protection; MRT last ([4]; 4 ml/kg): 0.22 ± 0.03 h; Vd ([4]; 4 ml/kg): 0.3 ± 0.02 L/kg; clearance ([4]; 4 ml/kg): 14.3 mL/min/kg; half-life ([4]; 4 ml/kg): 0.24 ± 0.04 h; detected mean maximum plasma concentration [4]: 0.039 μg/mL and 0.06 μM |
| O=c1ccn([C@@H]2O[C@H](CO)[C@@H](O)[C@H]2O)c(=O)[nH]1 [uridine] | 2.81% | – | – | – | – | – | – | – | – | – | – | – | – | – | – | – | – | – | – | < 0.5 ng/mL | – |
| O=c1c(O)c(-c2ccc(O)c(O)c2)oc2cc(O)cc(O)c12 [quercetin] | 2.51% | – | – | – | – | – | – | – | – | – | – | – | – | – | – | – | – | – | – | < 0.5 ng/mL | – |
| O=c1c(O)c(-c2ccc(O)cc2)oc2cc(O)cc(O)c12 [kaempferol] | – | – | – | – | – | – | – | – | – | – | – | – | – | – | – | – | – | – | – | < 0.5 ng/mL | – |
